According to patent US20070128217A1 (priority 2003, published 2007):

Assays:
[1] = test system: rabbit serum obtained by immunizing a rabbit with the SARS-CoV strain Frankfurt 1; type: binding; parameters: Binding of a rabbit serum to linear peptides / Binding of a rabbit serum to looped peptides / Rabbit serum linear peptides / Rabbit serum looped peptides / Binding of a rabbit serum to linear peptides of protein N of SARS-CoV Urbani (Rabbit serum linear peptides) / Binding of a rabbit serum to looped/cyclic peptides of protein N of SARS-CoV Urbani (Rabbit serum looped peptides): unit not given here
[2] = test system: control sera (pooled serum of ten healthy LUMC hospital workers; commercial negative donor pooled serum from the Dutch bloodbank); type: binding, human; parameters: Binding of Control serum LUMC to linear peptides / Binding of Control serum Blood-bank to linear peptides / Binding of Control serum LUMC to looped peptides / Binding of Control Serum Blood-Bank to Looped peptides / Binding of Control serum LUMC to linear peptides of the protein M of SARS-CoV Urbani / Binding of Control serum Blood-bank to linear peptides of the protein M of SARS-CoV Urbani / Binding of Control serum LUMC to looped peptides of the protein M of SARS-CoV Urbani / Binding of Control Serum Blood-Bank to Looped peptides of the protein M of SARS-CoV Urbani: unit not given here
[3] = test system: recombinant human anti-SARS-CoV antibody 03-018; type: binding; parameters: Binding of antibody 03-018 to linear peptides of the N protein of SARS-CoV Urbani / Binding of antibody 03-018 to looped/cyclic peptides of the N protein of SARS-CoV Urbani: unit not given here
[4] = test system: antibodies in sera from SARS patients (sera 1a, 1b, 2, 6, 37, 62, London, SARS-yellow, SARS-green); type: binding, human; parameters: Binding of serum 6 to linear peptides of protein X1 of SARS-CoV Urbani / Binding of serum 37 to linear peptides of protein X1 of SARS-CoV Urbani / Binding of serum 6 to looped/cyclic peptide (PEPSCAN-ELISA) / Binding of serum 37 to looped/cyclic peptide (PEPSCAN-ELISA) / Binding of serum 37 to looped/cyclic peptides of protein X1 of SARS-CoV Urbani / Binding of serum 6 to linear peptides of protein X2 / Binding of serum 37 to linear peptides of protein X2 / Binding of serum 37 to looped/cyclic peptides of protein X2 of SARS-CoV Urbani / Binding of serum 6 to linear peptides of protein M of SARS-CoV Urbani / Binding of serum 37 to linear peptides of protein M of SARS-CoV Urbani / Binding of serum 6 to looped/cyclic peptides of protein M of SARS-CoV Urbani / Binding of serum 37 to looped/cyclic peptides of protein M of SARS-CoV Urbani / Binding of serum 6 to linear peptides of protein X3 of SARS-CoV Urbani / Binding of serum 37 to linear peptides of protein X3 of SARS-CoV Urbani / Binding of serum 37 to looped/cyclic peptides of protein X3 of SARS-CoV Urbani / Binding of serum 6 to linear peptides of protein X4 of SARS-CoV Urbani / Binding of serum 37 to linear peptides of protein X4 of SARS-CoV Urbani / Binding of serum 37 to looped/cyclic peptides of protein X4 of SARS-CoV Urbani / Binding of serum 6 to linear peptides of protein X5 of SARS-CoV Urbani / Binding of serum 37 to linear peptides of protein X5 of SARS-CoV Urbani / Binding of serum 37 to looped/cyclic peptides of protein X5 of SARS-CoV Urbani / Binding of serum 6 to linear peptides of protein N of SARS-CoV Urbani / Binding of serum 37 to linear peptides of protein N of SARS-CoV Urbani / Binding of serum 6 to linear peptide (PEPSCAN-ELISA) / Binding of serum 1a to looped/cyclic peptides of protein N of SARS-CoV Urbani / Binding of serum 1b to looped/cyclic peptides of protein N of SARS-CoV Urbani / Binding of serum 2 to looped/cyclic peptides of protein N of SARS-CoV Urbani / Binding of serum 6 to looped/cyclic peptides of protein N of SARS-CoV Urbani / Binding of serum 37 to looped/cyclic peptides of protein N of SARS-CoV Urbani / Binding of serum 62 to looped/cyclic peptides of protein N of SARS-CoV Urbani / Binding of serum London to looped/cyclic peptides of protein N of SARS-CoV Urbani / Binding of serum SARS-green to looped/cyclic peptides of protein N of SARS-CoV Urbani: unit not given here

Sequence	Binding of a rabbit serum to linear peptides of protein N of SARS-CoV Urbani (Rabbit serum linear peptides) [1]	Binding of a rabbit serum to looped/cyclic peptides of protein N of SARS-CoV Urbani (Rabbit serum looped peptides) [1]	Binding of antibody 03-018 to linear peptides of the N protein of SARS-CoV Urbani [3]	Binding of antibody 03-018 to looped/cyclic peptides of the N protein of SARS-CoV Urbani [3]	Binding of serum 1a to linear peptides of protein N of SARS-CoV Urbani [4]	Binding of serum 1a to looped/cyclic peptides of protein N of SARS-CoV Urbani [4]	Binding of serum 1b to linear peptides of protein N of SARS-CoV Urbani [4]	Binding of serum 1b to looped/cyclic peptides of protein N of SARS-CoV Urbani [4]	Binding of serum 2 to linear peptides of protein N of SARS-CoV Urbani [4]	Binding of serum 2 to looped/cyclic peptides of protein N of SARS-CoV Urbani [4]	Binding of serum 6 to linear peptides of protein N of SARS-CoV Urbani [4]	Binding of serum 6 to looped/cyclic peptides of protein N of SARS-CoV Urbani [4]	Binding of serum 37 to linear peptides of protein N of SARS-CoV Urbani [4]	Binding of serum 37 to looped/cyclic peptides of protein N of SARS-CoV Urbani [4]	Binding of serum 62 to linear peptides of protein N of SARS-CoV Urbani [4]	Binding of serum 62 to looped/cyclic peptides of protein N of SARS-CoV Urbani [4]	Binding of serum London to linear peptides of protein N of SARS-CoV Urbani [4]	Binding of serum London to looped/cyclic peptides of protein N of SARS-CoV Urbani [4]	Binding of serum SARS-green to linear peptides of protein N of SARS-CoV Urbani [4]	Binding of serum SARS-green to looped/cyclic peptides of protein N of SARS-CoV Urbani [4]	also measured
EAQPLPQRQKKQPTV	0.1	0.0	0.1	0.2	0.2	0.2	0.2	0.1	0.3	0.2	0.3	0.2	0.7	0.3	0.7	0.2	1.2	0.3	0.4	0.2	Control Serum Blood-Bank Looped peptides [2]: 0.4; Control serum Blood-bank linear peptides [2]: 0.6; Control serum LUMC linear peptides [2]: 0.7; Control serum LUMC looped peptides [2]: 0.4; Binding of serum SARS-yellow to linear peptides of protein N of SARS-CoV Urbani [4]: 1.3; Binding of serum SARS-yellow to looped/cyclic peptides of protein N of SARS-CoV Urbani [4]: 0.5
EGALNTPKDHIGTRN	0.1	0.0	0.1	0.3	0.2	0.3	0.1	0.2	0.2	0.5	0.2	0.3	0.6	0.6	0.6	0.3	0.6	0.5	0.1	0.4	Binding of Control Serum Blood-Bank to Looped peptides [2]: 0.7; Binding of Control serum Blood-bank to linear peptides [2]: 0.7; Binding of Control serum LUMC to linear peptides [2]: 0.6; Binding of Control serum LUMC to looped peptides [2]: 0.5; Binding of serum SARS-yellow to linear peptides of protein N of SARS-CoV Urbani [4]: 0.5; Binding of serum SARS-yellow to looped/cyclic peptides of protein N of SARS-CoV Urbani [4]: 0.2
